From patent publication US20250034165A1, “COMPOUND CONTAINING CYCLOALKYL OR HALOALKYL” (CHIA TAI TIANQING PHARMACEUTICAL GROUP CO., LTD., priority 2021, published 2025)

How the values were obtained:
[1] = In vitro stability in liver microsomes; assay type: in vitro ADME; conditions: Human liver microsome
Description: 300 μL of the final incubation system contains 30 μL of liver microsomes (protein concentration: 0.15 mg/mL), 30 μL of NADPH+MgCl2, 3 μL of the test compound (in acetonitrile), and 237 μL of PBS buffer (pH 7.4). The proportion of the organic solvent (acetonitrile) was 1%. Samples were prepared in duplicate of 0.3 mL for each species (e.g., human or mouse liver microsomes). Tubes each containing 270 μL of a mixed solution of substrate and enzyme […] were pre-incubated at 37° C. for 5 min. 30 μL of NADPH+MgCl2 was added and the mixture was mixed. 50 μL of the mixture was taken at 0 min, 15 min, 30 min, and 60 min, and 300 μL of glacial acetonitrile containing an internal standard was added to terminate the reaction.
50 μL of the incubated sample was added with 300 μL of glacial acetonitrile containing an internal standard (20 ng/mL diazepam) for precipitation. The mixture was vortexed for 5 min, and centrifuged (12,000 rpm, 4° C.) for 10 min. 75 μL of supernatant was taken and diluted with 75 μL of ultrapure water. After being homogeneously mixed, 0.5 μL of the resulting sample was injected for analysis.

[2] = target: EGFR (d746-750 (d19)/T790M) (Homo sapiens (Human), UniProt P00533, DEL746-750/T790M); experiment: Inhibitory activity for EGFR (d746-750 (d19)/T790M) kinase; assay type: biochemical; conditions: ATP 5 μM
Summary of the method: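 Recombinant EGFR d746-750/T790M (0.003 ng/μL final) preincubated 30 min with compound (10 to 0.0024 nM, 4-fold steps), then 5 μM ATP and 0.1 μM ULight-poly GT added for 2 h at room temperature. EDTA stop, Eu-anti-phosphotyrosine TR-FRET read (665 nm); IC50 by four-parameter fit.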

[3] = target: EGFR (d746-750/T790M/C797S) (Homo sapiens (Human), UniProt P00533, C797S/DEL746-750/T790M); experiment: Inhibitory activity for EGFR (d746-750/T790M/C797S) kinase; assay type: biochemical; conditions: ATP 5 μM; read-out: EGFR(d19/T790M/C797S) (IC50)
Summary of the method: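 EGFR d746-750/T790M/C797S (0.03 ng/μL final) preincubated 30 min with compound (10 nM–0.0024 nM, 4-fold, 7 points). Reaction with 5 μM ATP and 0.1 μM ULight-poly GT, 2 h at room temperature; EDTA stop, Eu-anti-phosphotyrosine TR-FRET read at 665 nm, IC50 by four-parameter fit.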

[4] = test system: BAF3-EGFR (L858R/T790M/C797S) cells; experiment: Inhibition of proliferation of BAF3-EGFR (L858R/T790M/C797S) cells, CCK-8; assay type: cell-based; conditions: Ba/F3 EGFR, 72 h, read-out: BAF3(EGFR T790M L858R C797S) cell inhibitory activity IC50
Summary of the method: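 BaF3 EGFR L858R/T790M/C797S cells seeded at 1.5×10^5 cells/mL in RPMI + 10% FBS, 37 °C, compound added after overnight, duplicates. Viability by CCK-8; % inhibition vs untreated and blank, IC50 by four-parameter fit.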

[5] = test system: PC-9 EGFR-Del19-T790M-C797S cells; experiment: Inhibition of proliferation of PC-9-EGFR (Del19 T790M C797S) cells, CCK-8; assay type: cell-based; conditions: 72 h, read-out: PC-9-EGFR (Del19 T790M C797S) cell inhibitory activity IC50
Description: PC-9 EGFR-Del19-T790M-C797S cells in the logarithmic growth phase and good conditions were taken, washed with PBS, digested with pancreatin, terminated with a complete medium, collected and added to a centrifuge tube, adjusted to a cell density of 2×10^4 cells/mL, and seeded in a 96-well plate (100 μL/well). Meanwhile, compounds were loaded using a nanoliter pipettor resulting in the final concentrations of the compounds of 1000 nM-0.06 nM, and a control was set, replicate wells for each concentration. After 72 h of incubation in the cell incubator, the assay reagent CCK-8 (manufacturer: Dojindo Laboratories, Beijing; 10 μL/well) was added. After 2 h of incubation in the cell incubator, absorbance was measured at 450 nm on a PerkinElmer Envision microplate reader, and the inhibition rate was calculated.
(§1) Inhibition rate (%)=(mean value of negative control group-mean value of experimental group)/(mean value of negative control group−mean value of blank group)×100%.
(§2) A dose-response curve was fitted by four-parameter analysis, with the logarithm of compound concentration serving as abscissa and inhibition rate serving as ordinate, such that IC50 was calculated.

[6] = test system: BAF3-EGFR (del19/T790M/C797S) cells; experiment: Inhibition of proliferation of BAF3-EGFR (Del19/T790M/C797S) cells, CCK-8; assay type: cell-based; conditions: Ba/F3 EGFR-Del19/T790M/C797S, 72 h, read-out: BAF3(EGFR T790M Del19 C797S) cell inhibitory activity IC50
Description: A flask of BAF3-EGFR (del19/T790M/C797S) cells in the logarithmic growth phase and good conditions was taken, and the cells were collected and added to a centrifuge tube. 20 μL of cells were taken and counted, and the required number of cells (mL) was pipetted and centrifuged at 1200 rpm for 3 min. The supernatant was discarded, and an appropriate amount of plating medium (RPMI medium+10% FBS) was added to adjust the cell density to 1.0×10^5 cells/mL. The cells were seeded on a 96-well plate at 100 μL/well using a multi-channel pipette and cultured in a cell incubator at 37° C., 5% CO2 with saturated humidity. After overnight incubation, compounds were loaded using a nanoliter pipettor, 2 duplicate wells were set for each concentration, and cells without compound added were used as negative controls.
as §1, §2

[7] = In vivo pharmacokinetics in ICR mice; conditions: mouse, plasma, PO, 10 mg/kg intragastric; for AUC(0-t): read-out: AUC(0-t); for Cmax: read-out: Cmax; for MRT last: read-out: MRT(0-t); for Tmax: read-out: Tmax; for half-life: read-out: T½ (converted)
Description: The animals to be tested (ICR mice) were fasted for 12 h before administration and food was provided 4 h after administration, and water was freely drunk before and after the experiment and during the experiment.
After intragastric administration, about 0.1 mL of blood was collected from the orbit at 0 min, 15 min, 30 min, 1 h, 2 h, 4 h, 6 h, 8 h, 10 h, and 24 h. After anticoagulation with EDTA-K2, blood samples were transferred to a centrifuge within 30 min, and centrifuged at 4000 rpm for 10 min at 4° C. to separate the plasma. All the plasma samples were collected and immediately stored at −20° C. for testing.
300 μL of acetonitrile solution containing an internal standard ([…] diazepam) was added to 20 μL of the plasma sample to be tested and a standard curve sample. The mixture was shaken and homogeneously mixed for 5 min, and centrifuged at 12,000 rpm for 10 min. 70 μL of supernatant was taken and diluted with 70 μL of ultrapure water. After being mixed well, 2 μL of the resulting sample was subjected to LC/MS/MS, and a chromatogram was recorded.

Sequence of EGFR (d746-750/T790M/C797S) (P00533 other isoform, or with tags, fused parts or gaps T790M/C797S/del 1-694/del 746-750 limits assumed): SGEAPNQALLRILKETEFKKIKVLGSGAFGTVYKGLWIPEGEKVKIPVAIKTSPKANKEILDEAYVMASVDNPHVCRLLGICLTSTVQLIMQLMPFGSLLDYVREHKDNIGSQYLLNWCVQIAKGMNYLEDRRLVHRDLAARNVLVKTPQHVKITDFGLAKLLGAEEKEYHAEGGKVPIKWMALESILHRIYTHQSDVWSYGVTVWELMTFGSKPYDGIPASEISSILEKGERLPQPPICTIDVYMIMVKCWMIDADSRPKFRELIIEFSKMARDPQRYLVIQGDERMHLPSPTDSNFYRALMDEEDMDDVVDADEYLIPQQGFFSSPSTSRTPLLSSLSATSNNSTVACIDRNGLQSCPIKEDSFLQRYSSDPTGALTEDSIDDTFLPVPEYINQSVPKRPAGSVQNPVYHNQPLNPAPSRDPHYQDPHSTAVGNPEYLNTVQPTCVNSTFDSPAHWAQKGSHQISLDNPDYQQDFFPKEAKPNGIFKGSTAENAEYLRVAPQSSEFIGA
Sequence of EGFR (d746-750 (d19)/T790M) (P00533 other isoform, or with tags, fused parts or gaps T790M/del 1-668/del 746-750 limits assumed): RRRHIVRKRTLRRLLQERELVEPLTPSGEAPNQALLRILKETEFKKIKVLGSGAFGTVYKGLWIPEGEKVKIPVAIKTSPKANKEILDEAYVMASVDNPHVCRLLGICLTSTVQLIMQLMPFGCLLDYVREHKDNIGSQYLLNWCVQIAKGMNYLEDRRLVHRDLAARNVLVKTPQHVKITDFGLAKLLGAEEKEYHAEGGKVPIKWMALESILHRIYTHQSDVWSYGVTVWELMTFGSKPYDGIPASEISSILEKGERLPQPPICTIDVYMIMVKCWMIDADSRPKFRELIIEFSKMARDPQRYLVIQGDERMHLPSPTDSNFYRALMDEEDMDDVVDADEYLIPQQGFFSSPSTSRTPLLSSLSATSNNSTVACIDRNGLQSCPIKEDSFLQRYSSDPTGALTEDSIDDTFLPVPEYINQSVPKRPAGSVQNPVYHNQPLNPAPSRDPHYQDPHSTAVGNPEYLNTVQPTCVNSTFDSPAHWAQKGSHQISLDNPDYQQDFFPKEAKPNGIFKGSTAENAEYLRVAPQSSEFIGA

SMILES | Stability in liver microsomes (residual %, T = 60 min) [1] [%] | IC50 [2] [nM] | IC50 [3] [nM] | IC50 [4] [nM] | IC50 [5] [nM] | IC50 [6] [nM] | further results
Cc1cc2cc(n1)-c1cnn(C)c1OCCC[C@@H](C1CC1)CN1/C(=N/C2=O)Nc2ccc(NC3CCN(C)CC3)cc21 [Example 20] | 73.66 | 0.012 | 0.02 |  |  |  | 
Cc1cc2cc(n1)-c1cnn(C)c1OCCC[C@@H](C1CC1)CN1/C(=N/C2=O)Nc2cc(NC3CN(C)C3)ccc21 [Example 33] | 83.39 | 0.0098 | 0.015 |  |  |  | 
Cc1cc2cc(n1)-c1cnn(C)c1OCCC[C@@H](C1CC1)CN1/C(=N/C2=O)Nc2cc(N(C)C3COC3)ccc21 [Example 41] |  | 0.0089 | 0.016 | < 5 | < 50 | < 1 | 
Cc1cc2cc(n1)-c1cnn(C)c1OCCC[C@@H](C1CC1)CN1/C(=N/C2=O)Nc2ccc(NC3CCN(C(C)C)CC3)cc21 [Example 54] |  | 0.013 | 0.021 | < 5 | < 50 | < 1 | 
CCN1CCC(Nc2ccc3c(c2)N2C[C@H](C4CC4)CCCOc4c(cnn4C)-c4cc(cc(C)n4)C(=O)/N=C/2N3)CC1 [Example 55] |  | 0.014 | 0.02 | < 5 | < 50 | < 1 | 
Cc1cc2cc(n1)-c1cnn(C)c1OCCC[C@@H](C1CC1)CN1/C(=N/C2=O)Nc2ccc(NC(C)CN(C)C)cc21 (some centres unmarked) [Example 63] |  | 0.008 | 0.013 | < 5 | < 50 | < 1 | 
Cc1cc2cc(n1)-c1cnn(C)c1OCCC[C@@H](C1CC1)CN1/C(=N/C2=O)Nc2cc(N[C@@H](C)CN(C)C)ccc21 [Example 68] | 78.57 |  |  |  |  |  | AUC(0-inf) [7]: 1.96 µg·h/mL; AUC(0-t) [7]: 1.95 µg·h/mL; Cmax [7]: 0.148 µg/mL; MRT last [7]: 7.54 h; Tmax [7]: 4 h; half-life [7]: 3.04 h
Cc1cc2cc(n1)-c1cnn(C)c1OCCC[C@@H](C1CC1)CN1/C(=N/C2=O)Nc2cc(NCCCN3CCCC3)ccc21 [Example 70] | 81.11 | 0.013 | 0.04 | < 5 |  |  | 
Cc1cc2cc(n1)-c1cnn(C)c1OCCC[C@@H](C1CC1)CN1/C(=N/C2=O)Nc2cc(NCCCN3CCCCC3)ccc21 [Example 71] | 82.82 |  |  |  |  |  | AUC(0-inf) [7]: 1.68 µg·h/mL; AUC(0-t) [7]: 1.62 µg·h/mL; Cmax [7]: 0.138 µg/mL; MRT last [7]: 7.85 h; Tmax [7]: 6 h; half-life [7]: 4.5 h
Cc1cc2cc(n1)-c1cnn(C)c1OCCC[C@@H](C1CC1)CN1/C(=N/C2=O)Nc2ccc(NCCCN3CCCCC3)cc21 [Example 80] |  | 0.01 | 0.035 | < 5 | < 50 | < 1 | 
Cc1cc2cc(n1)-c1cnn(C)c1OCCC[C@@H](C1CC1)CN1/C(=N/C2=O)Nc2ccc(NCCCN3CCOCC3)cc21 [Example 81] |  | 0.011 | 0.037 | < 5 | < 50 | < 1 | 
Cc1cc2cc(n1)-c1cnn(C)c1OCCC[C@@H](C1CC1)CN1/C(=N/C2=O)Nc2ccc(NCCN3CCCC3)cc21 [Example 82] |  | 0.0085 | 0.02 | < 5 | < 50 | < 1 | 
Cc1cc2cc(n1)-c1cnn(C)c1OCCC[C@@H](C1CC1)CN1/C(=N/C2=O)Nc2cc(NC(C)C3(C)COC3)ccc21 (some centres unmarked) [Example 89] |  | 0.51 | 0.36 | < 5 | < 50 | < 1 | 
Cc1cc2cc(n1)-c1cnn(C)c1OCCC[C@@H](C1CC1)CN1/C(=N/C2=O)Nc2ccc(NC(=O)CCN(C)C)cc21 [Example 112] | 71.24 |  | 0.063 | < 5 | < 50 |  | 
[2H]C([2H])([2H])N(C[C@H](C)Nc1ccc2c(c1)N/C1=N/C(=O)c3cc(C)nc(c3)-c3cnn(C)c3OCCC[C@@H](C3CC3)CN12)C([2H])([2H])[2H] [Example 124] | 77.10 |  | 0.12 |  |  |  | 
Cc1cc2cc(n1)-c1cnn(C)c1OCCC[C@@H](C1CC1)CN1/C(=N/C2=O)Nc2cc(N[C@H]3C[C@@H](N(C)C)C3)ccc21 [Example 125] | 93.95 |  | 0.08 |  |  |  | 
Cc1cc2cc(n1)-c1cnn(C)c1OCCC[C@@H](C1CC1)CN1/C(=N/C2=O)Nc2ccc(N[C@H]3C[C@@H](N(C)C)C3)cc21 [Example 127] | 75.00 | 0.12 |  |  | < 50 |  | 
Cc1cc2cc(n1)-c1cnn(C)c1OCCC[C@@H](C1CC1)CN1/C(=N/C2=O)Nc2cc(N[C@@H]3CC[C@@H](N(C)C)C3)ccc21 [Example 129] | 92.24 |  | 0.065 |  |  |  | 
Cc1cc2cc(n1)-c1cnn(C)c1OCCC[C@@H](C1CC1)CN1/C(=N/C2=O)Nc2ccc(N[C@@H]3CC[C@@H](N(C)C)C3)cc21 [Example 130] | 56.81 |  | 0.056 | < 5 |  |  | 
Cc1cc2cc(n1)-c1cnn(C)c1OCCC[C@@H](C1CC1)CN1/C(=N/C2=O)Nc2cc(N[C@@H]3CC[C@H](N(C)C)C3)ccc21 [Example 133] | 95.34 |  | 0.097 | < 5 |  |  | 
Cc1cc2cc(n1)-c1cnn(C)c1OCCC[C@@H](C1CC1)CN1/C(=N/C2=O)Nc2ccc(N[C@@H]3CC[C@H](N(C)C)C3)cc21 [Example 134] | 65.19 |  | 0.069 | < 5 |  |  | 
